Legend:
Src kinase, p60c-src = biological target: T1, Src kinase, p60c-src (Homo sapiens, UniProt P12931); test: protein kinase reaction on peptide chip, phosphorylation detected by cy3-Pro-Q staining; type: biochemical; details: pH7.5, 0.07 mM ATP, 25° C. for 30 min
T1 construct: purchased Invitrogen
Source text: FIG. 8 is a fluorescence image of a protein kinase reaction on pY-phosphopeptide chip. The experiment used Src kinase, p60c-src (Invitrogen). The chip included 23 known kinase substrates and their sequence variants, which vary in length and composition, a number of position and negative control sequences, and a few artificial peptide sequences. For each substrate peptide, at the phosphorylation position, Tyr (Y) in YEEI, for instance, three sequences are present, which are YEEI, pYEEI and AEEI. pY-containing sequences are directly synthesized which are reference sequences for the Y-containing sequences (as the substrate for kinase reactions) There are also background sites which contain no peptides. 8-22 redundancies were present. The peptide sequences shown in the image are YVPM (column 1) and the YEEIP (column 2) related sequences in double replicates. These sequences are given on right of the image. […] Kinase reaction conditions and phosphorylation detection were: 10× enzyme storage solution (0.5 mg/ml). 50 ul reaction buffer, pH7.5 (50 HEPES, 0.1 mM EDTA, and 0.01% Brij 35, 0.1 mg/ml BSA, 0.1% beta-mercaptoethanol, 0.07 mM ATP, 10 mM MgCl2), 25° C. for 30 min. The array was stained by filling the array with 200 ul cy3-Pro-Q solution (phosphate staining reagent), standing at room temperature for 20 min. The chip was then washed with 2 ml destaining buffer, pH 4.0 (50 mM […], 20% acetonitrile) as recommended by the vendor. The image was obtained from a regular microarray scanner (Axon GenPix 4000B) and shown using inverted intensities after background subtraction.
The signal intensities were analyzed using the following equation:
Relative phosphorylation efficiency: fP =(IY−IA)/(IpY−IA)
For a peptide, I is the signal intensity, IY is for Y-containing sequence which undergoes phosphorylation by kinase,IpY is for the synthetic phosphopeptide, IA is for the sequence containing Y→A substitution. By using the positive controls (pY-sequence) and negative controls (A-sequence or other non-phosphorylation amino acids) to derive relative phosphorylation efficiency, fp as fraction or percentage, the kinase reaction results were analyzed quantitatively. The method takes the advantage of addressable peptide array for reducing false positive readout and improves reliability of the data analysis.

peptide YVPM = test system: T2, peptide YVPM
T2 sequence: YVPM

peptide YEEI = test system: T3, peptide YEEI
T3 sequence: YEEI

peptide YEEIP = test system: T4, peptide YEEIP
T4 sequence: YEEIP

peptide YEE = test system: T5, peptide YEE
T5 sequence: YEE

Substance	phosphorylation by Src kinase (substrate reactivity) (Src kinase, p60c-src)	other results
Src kinase, p60c-src (Invitrogen)		phosphorylation on peptide chip, cy3-Pro-Q phosphate staining (peptide YVPM): YVPM has the lowest reactivity; phosphorylation on peptide chip, cy3-Pro-Q phosphate staining (peptide YEEI): YEE and YEEI are phosphorylated by the Sic kinase used; phosphorylation on peptide chip, cy3-Pro-Q phosphate staining (peptide YEEIP): YEEIP is a substrate of lower reactivity; phosphorylation on peptide chip, cy3-Pro-Q phosphate staining (peptide YEE): YEE and YEEI are phosphorylated by the Sic kinase used
YEEIP	substrate of lower reactivity	

Second part, led by results:

phosphorylation by Src kinase (substrate reactivity) (Src kinase, p60c-src)	Substance	other results
lowest reactivity	YVPM	
phosphorylated	YEEI	
phosphorylated	YEE	

Reference: patent US20100210478A1, “MAKE AND USE OF SURFACE MOLECULES OF VARIED DENSITIES” (priority 2006, published 2010)
